ChEMBL document CHEMBL3399947, “Structure activity relationship of selective GABA uptake inhibitors” (Bioorg Med Chem, 2015)

Tests used:
Format in all cases: cell-based
[1] = biological target: Sodium- and chloride-dependent GABA transporter 1 (Mus musculus, UniProt P31648); assay: Inhibition of mouse mGAT1 expressed in HEK293 cells assessed as inhibition of [3H]GABA uptake after 3 mins incubation by TopCount microplate scintillation counting analysis
GABA transporter 2 = biological target: T1, GABA transporter 2 (Mus musculus, UniProt P31651); assay: Inhibition of mouse mGAT2 expressed in HEK293 cells assessed as inhibition of [3H]GABA uptake after 3 mins incubation by TopCount microplate scintillation counting analysis
T1 sequence (P31651 whole entry): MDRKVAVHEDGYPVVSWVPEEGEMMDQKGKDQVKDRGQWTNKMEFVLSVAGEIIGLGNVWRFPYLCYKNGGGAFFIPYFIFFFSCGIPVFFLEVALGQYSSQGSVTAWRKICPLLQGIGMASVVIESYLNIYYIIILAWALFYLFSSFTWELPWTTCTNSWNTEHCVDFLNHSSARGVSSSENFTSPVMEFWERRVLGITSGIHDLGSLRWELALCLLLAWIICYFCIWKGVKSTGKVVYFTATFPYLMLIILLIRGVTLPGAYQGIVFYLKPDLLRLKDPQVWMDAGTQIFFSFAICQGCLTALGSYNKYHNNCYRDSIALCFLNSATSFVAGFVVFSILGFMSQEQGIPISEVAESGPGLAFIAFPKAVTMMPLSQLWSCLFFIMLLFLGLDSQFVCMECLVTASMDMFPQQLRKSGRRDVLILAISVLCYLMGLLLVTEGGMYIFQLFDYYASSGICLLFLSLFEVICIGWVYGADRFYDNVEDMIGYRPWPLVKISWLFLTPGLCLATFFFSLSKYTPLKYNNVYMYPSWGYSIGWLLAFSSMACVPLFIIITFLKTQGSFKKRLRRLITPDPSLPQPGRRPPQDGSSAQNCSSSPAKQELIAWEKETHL

GABA transporter 3 = biological target: T2, GABA transporter 3 (Mus musculus, UniProt P31649); assay: Inhibition of mouse mGAT3 expressed in HEK293 cells assessed as inhibition of [3H]GABA uptake after 3 mins incubation by TopCount microplate scintillation counting analysis
T2 sequence (P31649 whole entry): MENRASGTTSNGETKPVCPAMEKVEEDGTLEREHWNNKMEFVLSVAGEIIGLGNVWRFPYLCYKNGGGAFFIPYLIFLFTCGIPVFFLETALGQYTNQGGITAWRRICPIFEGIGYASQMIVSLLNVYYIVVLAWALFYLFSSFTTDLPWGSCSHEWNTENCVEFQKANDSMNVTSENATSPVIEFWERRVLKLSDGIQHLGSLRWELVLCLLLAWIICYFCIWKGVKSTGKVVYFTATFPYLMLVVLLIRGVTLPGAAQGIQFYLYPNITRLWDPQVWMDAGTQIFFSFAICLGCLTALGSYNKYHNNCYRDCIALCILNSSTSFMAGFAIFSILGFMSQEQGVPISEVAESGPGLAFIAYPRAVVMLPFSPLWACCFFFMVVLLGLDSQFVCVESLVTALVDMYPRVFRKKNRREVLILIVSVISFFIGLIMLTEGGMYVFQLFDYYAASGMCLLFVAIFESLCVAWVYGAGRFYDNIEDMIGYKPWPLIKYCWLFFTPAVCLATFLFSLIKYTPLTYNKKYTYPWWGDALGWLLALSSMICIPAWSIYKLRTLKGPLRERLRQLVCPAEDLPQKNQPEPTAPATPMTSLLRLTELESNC

GABA transporter 4 = biological target: T3, GABA transporter 4 (Mus musculus, UniProt P31650); assay: Inhibition of mouse mGAT4 expressed in HEK293 cells assessed as inhibition of [3H]GABA uptake after 3 mins incubation by TopCount microplate scintillation counting analysis
T3 sequence (P31650 whole entry): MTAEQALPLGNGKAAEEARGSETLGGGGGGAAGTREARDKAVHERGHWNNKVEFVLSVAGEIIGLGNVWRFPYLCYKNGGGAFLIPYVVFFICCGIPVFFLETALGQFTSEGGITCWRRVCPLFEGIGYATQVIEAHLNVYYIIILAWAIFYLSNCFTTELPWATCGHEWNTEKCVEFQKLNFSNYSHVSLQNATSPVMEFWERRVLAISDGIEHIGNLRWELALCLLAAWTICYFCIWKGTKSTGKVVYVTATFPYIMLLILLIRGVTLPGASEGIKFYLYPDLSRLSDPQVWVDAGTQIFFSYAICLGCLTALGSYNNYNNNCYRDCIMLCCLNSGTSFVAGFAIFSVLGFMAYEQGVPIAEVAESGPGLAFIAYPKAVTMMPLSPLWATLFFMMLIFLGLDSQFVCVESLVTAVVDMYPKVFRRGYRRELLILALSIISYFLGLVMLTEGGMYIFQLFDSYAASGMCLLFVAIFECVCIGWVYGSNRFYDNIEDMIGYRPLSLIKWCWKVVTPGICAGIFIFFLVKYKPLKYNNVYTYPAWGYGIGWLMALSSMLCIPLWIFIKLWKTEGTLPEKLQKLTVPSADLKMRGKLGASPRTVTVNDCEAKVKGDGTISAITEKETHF

Row | SMILES | IC50 ([1]; read-out: IC50) | IC50 (GABA transporter 2; read-out: IC50) | IC50 (GABA transporter 3; read-out: IC50) | IC50 (GABA transporter 4; read-out: IC50) | IC50 (GABA transporter 3; hek293, read-out: IC50) | IC50 (GABA transporter 4; hek293, read-out: IC50) | IC50 (GABA transporter 4; read-out: pIC50 (converted)) | IC50 (GABA transporter 3; read-out: pIC50 (converted)) | IC50 ([1]; read-out: pIC50 (converted)) | IC50 (GABA transporter 2; read-out: pIC50 (converted))
1 | Cc1ccsc1C(=CCCN(C)[C@@H]1CCCC[C@@H]1C(=O)O)c1sccc1C | 917 µM | 94.9 µM | 328 µM | 380 µM | – | – | – | – | – | –
2 | Cc1ccsc1C(=CCCN(C)[C@H]1CCCC[C@@H]1C(=O)O)c1sccc1C | 264 µM | 62.2 µM | 478 µM | 263 µM | – | – | – | – | – | –
3 | Cc1ccsc1C(=CCCN(C)[C@@H]1CCCC[C@H]1C(=O)O)c1sccc1C | 194 µM | 133 µM | 633 µM | 551 µM | – | – | – | – | – | –
4 | CN(CCON=C(c1ccccc1)c1ccccc1)[C@@H]1CCCC[C@H]1C(=O)O | > 2000 µM | 880 µM | – | – | > 2000 µM | > 2000 µM | – | – | – | –
5 | CN(CCC=C1c2ccccc2CCc2ccccc21)[C@@H]1CCCC[C@H]1C(=O)O | 614 µM | 119 µM | 966 µM | 883 µM | – | – | – | – | – | –
6 | CN(CCC=C1c2ccccc2CCc2ccccc21)[C@H]1CCCC[C@@H]1C(=O)O | 962 µM | 139 µM | 1240 µM | 715 µM | – | – | 724 µM | – | – | –
7 | CN(CCOC(c1ccc(C(F)(F)F)cc1)c1ccc(C(F)(F)F)cc1)[C@@H]1CCCC[C@H]1C(=O)O | 421 µM | 97.1 µM | 393 µM | 299 µM | – | – | – | – | – | –
8 | Cc1ccsc1C(=CCCN(C)[C@H]1CCCC[C@H]1C(=O)O)c1sccc1C | 562 µM | 21.6 µM | 941 µM | 289 µM | – | – | – | – | – | –
9 | CN(CCON=C(c1ccccc1)c1ccccc1)[C@H]1CCCC[C@H]1C(=O)O | > 1000 µM | 417 µM | > 1000 µM | > 1000 µM | – | – | – | – | – | –
10 | CN(CCON=C(c1ccccc1)c1ccccc1)[C@@H]1CCCC[C@@H]1C(=O)O | > 1000 µM | 443 µM | > 1000 µM | > 1000 µM | – | – | – | – | – | –
11 | CN(CCC=C1c2ccccc2CCc2ccccc21)[C@H]1CCCC[C@H]1C(=O)O | 1360 µM | 147 µM | 1840 µM | 649 µM | – | – | – | 1450 µM | – | –
12 | CN(CCC=C1c2ccccc2CCc2ccccc21)[C@@H]1CCCC[C@@H]1C(=O)O | 1820 µM | 88.9 µM | 1030 µM | 1450 µM | – | – | – | – | – | –
13 | CN(CCOC(c1ccc(C(F)(F)F)cc1)c1ccc(C(F)(F)F)cc1)[C@H]1CCCC[C@H]1C(=O)O | 631 µM | 90 µM | 392 µM | 303 µM | – | – | – | – | – | –
14 | CN(CCOC(c1ccc(C(F)(F)F)cc1)c1ccc(C(F)(F)F)cc1)[C@@H]1CCCC[C@@H]1C(=O)O | 445 µM | 63.1 µM | 336 µM | 539 µM | – | – | – | – | – | –
15 | CN(CCON=C(c1ccccc1)c1ccccc1)C1CCCC=C1C(=O)O (stereo not given) | > 2000 µM | 814 µM | > 2000 µM | > 2000 µM | – | – | – | – | – | –
16 | CN(CCC=C1c2ccccc2CCc2ccccc21)C1CCCC=C1C(=O)O (stereo not given) | 425 µM | 81 µM | 687 µM | 821 µM | – | – | – | – | 537 µM | –
17 | CN(CCOC(c1ccc(C(F)(F)F)cc1)c1ccc(C(F)(F)F)cc1)C1CCCC=C1C(=O)O (stereo not given) | > 1000 µM | 107 µM | > 1000 µM | > 1000 µM | – | – | – | – | – | –

Row | SMILES | IC50 ([1]; read-out: IC50) | IC50 (GABA transporter 2; read-out: IC50) | IC50 (GABA transporter 3; read-out: IC50) | IC50 (GABA transporter 4; read-out: IC50) | IC50 (GABA transporter 3; hek293, read-out: IC50) | IC50 (GABA transporter 4; hek293, read-out: IC50) | IC50 (GABA transporter 4; read-out: pIC50 (converted)) | IC50 (GABA transporter 3; read-out: pIC50 (converted)) | IC50 ([1]; read-out: pIC50 (converted)) | IC50 (GABA transporter 2; read-out: pIC50 (converted))
18 | Cc1ccsc1C(=CCCN(C)[C@H]1CCCC[C@H]1CO)c1sccc1C | 215 µM | 27 µM | 168 µM | 146 µM | – | – | – | – | – | –
19 | Cc1ccsc1C(=CCCN(C)[C@@H]1CCCC[C@@H]1CO)c1sccc1C | 239 µM | 34.8 µM | 133 µM | 178 µM | – | – | – | – | – | –
20 | CN(CCON=C(c1ccccc1)c1ccccc1)[C@H]1CCCC[C@H]1CO | 415 µM | 49.1 µM | 295 µM | 136 µM | – | – | – | – | – | –
21 | CN(CCON=C(c1ccccc1)c1ccccc1)[C@@H]1CCCC[C@@H]1CO | 426 µM | 76.6 µM | 349 µM | 341 µM | – | – | – | – | – | 77.6 µM
22 | CN(CCC=C1c2ccccc2CCc2ccccc21)[C@H]1CCCC[C@H]1CO | 191 µM | 28.3 µM | 148 µM | 126 µM | – | – | – | – | – | –
23 | CN(CCC=C1c2ccccc2CCc2ccccc21)[C@@H]1CCCC[C@H]1C(=O)O (racemic) | 972 µM | 125 µM | 985 µM | 844 µM | – | – | – | – | – | –
24 | CN(CCOC(c1ccc(C(F)(F)F)cc1)c1ccc(C(F)(F)F)cc1)[C@@H]1CCCC[C@H]1C(=O)O (racemic) | 426 µM | 138 µM | 433 µM | 392 µM | – | – | – | – | – | –
25 | Cc1ccsc1C(=CCCN1CCNC(C(=O)O)C1)c1sccc1C (racemic) | 95.6 µM | > 1000 µM | > 1000 µM | > 1000 µM | – | – | – | – | – | –
26 | O=C(O)C1CN(CCON=C(c2ccccc2)c2ccccc2)CCN1 (racemic) | 216 µM | > 1000 µM | > 1000 µM | > 1000 µM | – | – | – | – | – | –
27 | O=C(O)C1CN(CCOC(c2ccc(C(F)(F)F)cc2)c2ccc(C(F)(F)F)cc2)CCN1 (racemic) | 83 µM | 401 µM | > 1000 µM | 1760 µM | – | – | – | – | – | –
28 | CCN1CCNC(C(=O)O)C1 (racemic) | > 1000 µM | > 1000 µM | > 1000 µM | > 1000 µM | – | – | – | – | – | –
29 | Cc1ccsc1C(=CCCN1CCNCC1C(=O)O)c1sccc1C (racemic) | 195 µM | 1400 µM | 1660 µM | 883 µM | – | – | – | – | – | –
30 | O=C(O)C1CNCCN1CCON=C(c1ccccc1)c1ccccc1 (racemic) | > 1000 µM | > 1000 µM | > 1000 µM | > 1000 µM | – | – | – | – | – | –
31 | CCN1CCNCC1C(=O)O (racemic) | > 1000 µM | > 1000 µM | > 1000 µM | > 1000 µM | – | – | – | – | – | –
32 | Cc1ccsc1C(=CCCN(C)C1CCCC=C1C(=O)O)c1sccc1C (stereo in doubt; (E1)-6a) | 170 µM | 76.7 µM | 765 µM | 468 µM | – | – | – | – | – | –
33 | Cc1ccsc1C(=CCCN(C)C1CCCC=C1C(=O)O)c1sccc1C (stereo in doubt; (E2)-6a) | 403 µM | 67 µM | 584 µM | 413 µM | – | – | – | – | – | –
34 | CNCCC=C1c2ccccc2CCc2ccccc21 [NORTRIPTYLINE] | 389 µM | 171 µM | 270 µM | 249 µM | – | – | – | – | – | –
